Test system: rats with unilateral 6-hydroxy dopamine-induced lesion of the dopaminergic nigrostriatal patway
Assay: Turning behaviour in rats: induction of controlateral turnings after a single treatment
Assay type: in vivo
Excerpt: More in particular, the ergoline derivatives according to the invention are active as antiparkinson agents, owing to their dopaminergic activity. The dopaminergic activity is indicated e.g. by an induction of controlateral turnings in rats with unilateral 6-hydroxy dopamine-induced lesion of the dopaminergic nigrostriatal patway. [According to the principles of N.Ungerstedt et al., Brain Research 24,485 (1970)].

[1] = single treatment, 0.5 mg/Kg s.c., in 6 hours
[2] = single treatment, 0.5 mg/Kg s.c., turning rats / treated rats

CN1C(=O)CC(C[C@@H]2C=C3c4cccc5[nH]cc(c45)C[C@H]3N(C)C2)CC1=O [Example 5, 1-Methyl-4-[(6-methylergolen-Δ9,10-8β-yl)methyl]-piperidin-2,6-dione]
Number of controlateral turns (X) in 6 hours [1]: 1830
Turning rats Treated rats [2]: 5/5

CC(C)C[C@H]1C(=O)N2CCC[C@H]2[C@]2(O)O[C@](NC(=O)[C@@H]3C=C4c5cccc6[nH]c(Br)c(c56)C[C@H]4N(C)C3)(C(C)C)C(=O)N12 [Bromocriptine, bromocriptine, reference compound]
Number of controlateral turns (X) in 6 hours (rat, in vivo, sc, 1 mg/kg): 1920
Turning rats Treated rats (rat, in vivo, sc, 1 mg/kg): 6/9

CN1C[C@H](CC2CC(=O)NC(=O)C2)C=C2c3cccc4[nH]cc(c34)C[C@H]21 [Example 1, 4-[(6-Methylergolen-Δ9,10-8β-yl)methyl]-piperidin-2,6-dione]
Number of controlateral turns (X) in 6 hours [1]: 1540
Turning rats Treated rats [2]: 4/4

Reference: EP0449346B1, “4-Piperidinyl-ergoline derivatives” (PHARMACIA S.p.A., priority 1990, dated 1991)
